This note sets out measurements from patent publication US10519132B2, “Isocorydine derivatives, preparation method and use thereof” (Lanzhou Institute of Chemical Physics, Chinese Academy of …, priority 2017, dated 2019).

Values after ≈ are worked out from the molar mass of the structure shown. Read-outs that look alike come from different tables or passages of the source.

In series [1] the test system is human liver cancer cell strain HepG2. The series can be described thus: MTT growth inhibition on HepG2.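 Note: adherent cells in 96-well plates treated with a concentration series for 24, 48 or 72 h, MTT absorbance read at 490 nm, inhibition computed relative to untreated control wells.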 The class given is cell-based. Conditions: Homo sapiens, read-out: IC50 HepG2.
Method: (§2) By using an MTT method, a sample solution to be tested was added to a 96-well plate in which cancer cells were adherently grown. Culturing was performed for a certain period, and the growth inhibition effect of a compound on a human cancer cell strain for primary screening was measured to determine the anti-cancer activity of the compound.
(§3) Cell culture: A cell incubator was set to conditions of 37° C., 5% CO2, and a saturated humidity, cells were cultured under these conditions, and the cell medium was a DMEM complete medium, wherein 10% fetal bovine serum, 100 IU/mL penicillin, and 100 μg/mL streptomycin were comprised.
(§4) The single cell suspension was diluted to 5×10^3/100 μL after counting, inoculated on a 96-well cell culture plate (triplicate), and adherently cultured overnight;
(§5) After 24 h of adhesion, the complete medium was discarded, 100 μL-sample-solutions to be tested having different concentrations were sequentially added to the 96-well plate according to a concentration gradient, and incubations were continued for 24 h, 48 h, and 72 h;
(§6) The culture liquid was discarded, a 0.5 mg/mL MTT diluted working liquid was added, and incubation was performed for 4 h by placing in an incubator;
(§7) The culture liquid was discarded, 100 μL of DMSO was added, low-speed oscillation was performed for 10 min by placing on a shaker, and the spectrophotometric value of each well was measured at a wavelength of 490 nm by using a microplate reader. Statistical analysis was performed and tumor cell growth inhibition rate was calculated according to the equation: Growth inhibition rate=(OD value of control group−OD value of experimental group)/OD value of control group.
(§8) Culturing was performed for a certain period, the growth inhibition effect of a compound on 3 human cancer cell strains for primary screening was measured to determine the anti-cancer activity of the compound, and a growth inhibition curve was plotted.
The next series deals with liver cancer cells. The series can be described thus: MTT growth inhibition on liver cancer cells. The following applies: Homo sapiens. The class given is cell-based.
For series [2], the system named is HepG2 cells. The series can be described thus: Cell cycle distribution by flow cytometry. The class given is cell-based, human. Conditions: sorafenib 5 μg/mL, FICD 10 μg/mL, combination 5 μg/mL FICD+10 μg/mL sorafenib. On the procedure: 1 mL of 70% precooled (−20° C.) ethanol was added to the cell precipitate, homogenized by pipetting, and fixed at 4° C. overnight. On the second day, HepG2 cells was collected by centrifugation, 2 mL of precooled PBS was added for washing 3 times, 500 μL of PBS containing 50 μg/mL […] (PI) and 100 μg/mL RNaseA was added, and incubation was performed at 4° C. under protection from light for 30 min. Detection was performed on a flow cytometer, and results can be seen in FIG. 9 and FIG. 10.

The subject of series [3] is HepG2 cells. The series can be described thus: Apoptosis induction by laser confocal scanning microscope. Type of series: cell-based, human. Conditions: HepG2, 48 h. The method, then: Two solutions (a former one and a later one) were mixed, centrifugation was performed at 1000 r/min for 5 min, the supernatant was discarded, and washing was performed for 3 times with PBS. The cell precipitate was resuspended in Binding Buffer, 10 μL of a FITC-Annen V staining liquid was added, homogenized by pipetting slightly, and reaction was performed under protection from light. PI was added for staining for 15 min, centrifugation was performed, the supernatant was discarded, and washing was performed for 3 times again with PBS. A glass slide was loaded by applying the cell precipitate thereto and mounted with non-fluorescent buffering glycerol, a laser confocal scanning microscope was immediately used for observation and taking photographs at wavelengths of 488 nm and 560 nm. Meanwhile, cells without AnneixnV-FITC and PI added were used as a negative control.

Series [4] concerns ascites hepatoma H22 induced solid tumor. As to the kind of experiment: In vivo tumor growth inhibition in mice bearing H22. More on the design: species or system white Kunming mice. The following applies: Table 4, intraperitoneal, 10 d. The text has this: 1. Tumor strain and animal for experiments: H22 liver cancer cell strain was provided by Teaching and Research Office, School of Basic Medical Sciences, Lanzhou University/Key Lab of Preclinical Study for New Drugs of Gansu Province, and was passage and preserved by periodically intraperitoneal inoculation. White Kunming mice (18.0-22.0 g) were provided by Lanzhou Veterinary Institute, Chinese Academy of Agriculture.
2. Establishment of tumor models and method of grouping: a third passage of mice which were well grown 7 d after intraperitoneal inoculation of H22 tumor cells were sacrificed by cervical dislocation, and placed and soaked in 75% alcohol for 10 min. After 3 mL of sterile physiological saline was intraperitoneally injected, milky tumor cell ascites was withdrawn from the abdominal cavity, and formulated into a tumor cell suspension with sterile physiological saline, with a cell number of 1.5×10^7 mL^−1. 80 white Kunming mice were taken, and 0.2 mL of the tumor cell suspension was subcutaneously inoculated to the left axilla of each mouse. 24 h after the inoculation of tumor cells, the mice were divided into 8 groups according to body weights, 10 mice for each group. […] All of the administration manners were intraperitoneal administration.
3. Result of experiments: On the second day of modeling, continuous administration was performed for 10 d. Administration was stopped on the 11th d, and mice were sacrificed by cervical dislocation on the next day.
(§1) Test method: For the test method, see Example 24. Results can be seen in FIG. 15, FIG. 16, and Table 5.
Method: Modeling was performed by using the method of establishing H22 white mice tumor-bearing model of Example 24. The in vivo tumor growth inhibition activity of COM33 on H22 model mice was measured in an intraperitoneal injection administration manner.

Series [5] can be described thus: In vivo absorption in mice, intragastric versus intraperitoneal administration. More on the design: species or system white Kunming mice. The following applies: inferred from no statistical difference between administration manners.
Description: The aim of this experiment was to investigate in vivo tumor growth inhibition effect of FICD on white Kunming mice bearing ascites hepatoma H22 induced solid tumor, discuss in vivo absorption of FICD in mice, and investigate the druggability and the selection of administration manners of FICD, among different administration manners (intragastric administration and intraperitoneal injection administration). The specific protocol of investigation was as follows:
as §1

Series [6] has as its system human gastric cancer cell strain MGC-803. The series can be described thus: MTT growth inhibition on MGC-803.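 Note: adherent cells exposed to compound over a concentration gradient for 24, 48 and 72 h, MTT absorbance at 490 nm, inhibition relative to untreated control wells.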 The following applies: Homo sapiens.
Method: as §2, §3, §4, §5, §6, §7, §8

Method for liver cancer cells: as §2, §3
The single cell suspension was diluted to 5×10^3/100 μL after counting, inoculated on a 96-well cell culture plate (triplicate), and adherently cultured overnight; […]
as §7

In the case of `COc1cc(NC(=O)Nc2ccc(Cl)c(C(F)(F)F)c2)c2c(c1O)-c1c(OC)c(OC)cc3c1C(C2)N(C)CC3` (stereo not shown) [Compound 1], the IC50 in series [1] (HepG2, 48 h, after 48 h of action) was 10.1 ± 1.2 µg/mL; in series [1] (HepG2, Table 1, MTT), 17.2 µM; in series [1] (HepG2, Table 2, MTT), 17.2 µM; in the series with liver cancer cells it was 10 to 20 µg/mL (≈ 17.3 to 34.6 µM); in series [6] (MGC-803, 48 h, read-out: IC50 MGC-803, after 48 h of action), 15.6 ± 2.4 µg/mL; in series [6] (MGC-803, read-out: IC50 MGC-803, Table 1, MTT), 16.6 µM. The IC50 in series [6] (MGC-803, read-out: IC50 MGC-803, Table 2, MTT) is 16.6 µM. Further, the “cell cycle distribution compared to the blank control group” value in the series on HepG2 cells [2] is “cells significantly increased in the G2/M phase and decreased in the G0/G1 phase”. In the series on HepG2 cells [3], the “apoptosis and cell morphology, Anneixn V-FITC and PI double-staining” value is given as “apoptoses occurred during various phases”. The figures for the “Tumor inhibition rate (%)” value in series [4] (high FICD dosage 150 mg/Kg), in series [4] (low FICD dosage 50 mg/Kg) and in series [4] (middle FICD dosage 100 mg/Kg) were 50.8%, 39.1% and 45.6%, respectively. In addition, the “in vivo absorption after oral administration” value in series [5] was “well absorbed”.
